# According to US11214803B2, “Modulators of YAP1 expression” (Ionis Pharmaceuticals, Inc., priority 2019, dated 2022):
# Strand notation (5' to 3'): a small letter for the sugar, then the base; units joined by * are phosphorothioate-linked, units joined directly phosphodiester-linked; [ ] holds rarer units or linkages, { } end groups; capitals alone tell only the bases. k = constrained ethyl (cEt); [5mC] = 5-methylcytosine; d = 2'-deoxy (DNA)
# System: Yap1 mRNA
# Test: Antisense inhibition of human Yap1 in A-431 cells by cEt gapmers, single dose (Example 2, RTS4814)
# Format: cell-based
# In short: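 Free uptake, 2,000 nM, ~48 h, A-431 at 5,000 cells/well. Readout: RT-qPCR (RTS4814), RIBOGREEN-normalized, % UTC. 16-mer 3-10-3 cEt gapmers, full PS backbone, all C as 5-methylcytosine.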
# [1] = Yap1 mRNA as percent of untreated control, A-431 cells, 3-10-3 cEt gapmers targeting SEQ ID NO.: 1, and 2, Table 30
# [2] = Table 6, A-431 cells, 5,000 cells per well, free uptake, 2,000 nM modified oligonucleotide, approx. 48 hours, RTS4814, normalized to RIBOGREEN, Yap1 mRNA relative to untreated control cells
# [3] = Table 33, Yap1 mRNA, percent of untreated control, 3-10-3 cEt gapmers targeting SEQ ID NO.: 1, and 2
# [4] = Yap1 mRNA as percent of untreated control, A-431 cells, 3-10-3 cEt gapmers targeting SEQ ID NO.: 1, and 2, Table 31
# [5] = Table 25, Yap1 mRNA as percent of untreated control, 3-10-3 cEt gapmers targeting SEQ ID NO.: 1, and 2
# [6] = Table 21, Yap1 mRNA, percent of untreated control, 3-10-3 cEt gapmers targeting SEQ ID NO.: 1 and 2
# [7] = Table 18, A-431 cells, 5,000 cells per well, free uptake, 2,000 nM modified oligonucleotide, approx. 48 hours, RTS4814, normalized to RIBOGREEN, Yap1 mRNA as percent of untreated control
# [8] = Table 19, A-431 cells, 5,000 cells per well, free uptake, 2,000 nM modified oligonucleotide, approx. 48 hours, RTS4814, normalized to RIBOGREEN, Yap1 mRNA as percent of untreated control
# [9] = Table 23, Yap1 mRNA as percent of untreated control, 3-10-3 cEt gapmers, single dose
# [10] = A-431 cells, 5,000 cells per well, free uptake, 2,000 nM modified oligonucleotide, approx. 48 hours, RTS4814, normalized to RIBOGREEN, Table 4, asterisk (*) = targets amplicon region of primer probe set
# [11] = Table 5, A-431 cells, 5,000 cells per well, free uptake, 2,000 nM modified oligonucleotide, approx. 48 hours, RTS4814, normalized to RIBOGREEN, Yap1 mRNA relative to untreated control cells
substance,measurement,setting,value
1075376 (antisense k[5mC]*k[5mC]*kT*dA*dA*dA*dT*dA*dT*d[5mC]*dA*dA*d[5mC]*kT*k[5mC]*k[5mC]) [compound 1075376],YAP1 (% UTC),[1],72 % UTC
716348 (kA*k[5mC]*kG*dG*dA*dG*dG*d[5mC]*d[5mC]*dG*dG*dA*d[5mC]*kA*kG*k[5mC]; antisense) [Compound 716348],YAP1 (% UTC),[2],107 % UTC
716360 (k[5mC]*kT*kG*d[5mC]*d[5mC]*d[5mC]*dG*dG*dG*dA*dT*d[5mC]*d[5mC]*kA*kT*kG; antisense) [Compound 716360],YAP1 (% UTC),[2],118 % UTC
1076360 (k[5mC]*kT*kA*dT*dT*dT*dA*dT*d[5mC]*d[5mC]*dT*dA*dG*kT*kT*kA; antisense) [Compound 1076360],YAP1 (% UTC),"Table 22, Yap1 mRNA as percent of untreated control, 3-10-3 cEt gapmers, single dose",59 % UTC
1076307 (kG*kT*kA*dA*dT*dT*dA*d[5mC]*d[5mC]*dT*d[5mC]*dT*dA*kA*kT*k[5mC]; antisense) [compound 1076307],YAP1 (% UTC),[3],38 % UTC
1076081 (kG*kA*kT*dA*dA*dT*dT*d[5mC]*dA*d[5mC]*d[5mC]*d[5mC]*dT*kT*kG*kT; antisense) [compound 1076081],YAP1 (% UTC),[4],15 % UTC
1074955 (antisense k[5mC]*k[5mC]*k[5mC]*dG*dG*dG*dT*dT*dT*dT*dT*dG*dT*k[5mC]*kA*kT) [Compound 1074955],YAP1 (% UTC),[5],93 % UTC
1075431 (antisense kT*kA*kA*d[5mC]*dT*dA*dA*dA*d[5mC]*dT*dG*dA*dT*kT*k[5mC]*k[5mC]) [Compound 1075431],YAP1 (% UTC),[6],74 % UTC
1075716 (kG*k[5mC]*k[5mC]*dG*dA*dA*dA*dT*dA*d[5mC]*dT*d[5mC]*dT*k[5mC]*kA*kT; antisense) [Compound 1075716],YAP1 (% UTC),[7],19 % UTC
1074117 (antisense kG*k[5mC]*kG*d[5mC]*d[5mC]*dT*dG*dA*dG*dA*dA*d[5mC]*dT*kT*kT*kT) [Compound 1074117],YAP1 (% UTC),[8],87 % UTC
1074372 (antisense k[5mC]*kT*kT*dT*dG*dG*dT*dT*dG*dA*dT*dA*dG*kT*kA*kT) [Compound 1074372],YAP1 (% UTC),[7],10 % UTC
1075945 (kG*kT*kA*dT*dT*dA*dG*dG*dA*dA*d[5mC]*dA*dG*kA*kT*k[5mC]; antisense) [Compound 1075945],YAP1 (% UTC),[9],11 % UTC
716397 (kG*kG*k[5mC]*d[5mC]*dT*d[5mC]*dA*d[5mC]*d[5mC]*dT*dG*d[5mC]*d[5mC]*kG*kA*kA; antisense) [Compound 716397],YAP1 (% UTC),[10],88 % UTC
716391 (kG*kG*kA*dG*d[5mC]*dA*d[5mC]*dT*d[5mC]*dT*dG*dA*d[5mC]*kT*kG*kA; antisense) [Compound 716391],YAP1 (% UTC),[10],44 % UTC
716377 (kG*kG*kT*dA*dT*d[5mC]*dT*d[5mC]*dA*dA*dA*dA*dG*kA*kA*kG; antisense) [Compound 716377],YAP1 (% UTC),[11],76 % UTC
1075653 (k[5mC]*kA*kT*dA*dA*dA*d[5mC]*dT*d[5mC]*dT*dG*d[5mC]*dT*kG*kT*k[5mC]; antisense) [Compound 1075653],YAP1 (% UTC),[8],58 % UTC
1076555 (antisense kT*kG*kG*dG*dA*dA*dT*dA*dG*dT*dA*d[5mC]*dA*k[5mC]*kA*kG) [Compound 1076555],YAP1 (% UTC),[5],19 % UTC
1075627 (kA*kT*kA*dA*dG*dA*dT*dA*dG*dT*d[5mC]*dG*dG*kT*kT*k[5mC]; antisense) [Compound 1075627],YAP1 (% UTC),[5],19 % UTC
716387 (kT*kA*kT*dG*dG*dT*dT*dT*dA*dT*dA*dT*dA*kG*kT*kA; antisense) [Compound 716387],YAP1 (% UTC),[2],33 % UTC
1075499 (kG*k[5mC]*kT*dA*dA*dA*dA*dA*dA*dT*dG*dA*dG*kT*kA*kG; antisense) [Compound 1075499],YAP1 (% UTC),[5],99 % UTC
1075818 (k[5mC]*kA*kT*dA*dA*d[5mC]*dT*dT*dA*dG*dA*dA*d[5mC]*k[5mC]*kA*kT; antisense) [Compound 1075818],YAP1 (% UTC),"Table 24, Yap1 mRNA as percent of untreated control, 3-10-3 cEt gapmers targeting SEQ ID NO.: 1, and 2",35 % UTC
1074535 (antisense kG*kT*kA*dA*dT*dA*dG*d[5mC]*dT*d[5mC]*dT*dT*dT*k[5mC]*kT*kA) [Compound 1074535],YAP1 (% UTC),[6],5 % UTC
1075819 (kG*kT*kA*dT*dA*dT*d[5mC]*d[5mC]*dG*dT*dT*d[5mC]*dT*k[5mC]*kA*kT; antisense) [Compound 1075819],YAP1 (% UTC),[5],2 % UTC
1075685 (k[5mC]*kA*kT*dA*dA*dT*d[5mC]*dA*dA*dA*dG*dG*dG*kT*kG*k[5mC]; antisense) [Compound 1075685],YAP1 (% UTC),[8],60 % UTC
1075568 (kT*kT*kA*dT*dT*dT*dA*dA*dG*dT*dT*dG*dG*kG*kA*kG; antisense) [compound 1075568],YAP1 (% UTC),[1],23 % UTC
716362 (kA*kG*kG*d[5mC]*dG*dG*d[5mC]*dT*dG*d[5mC]*d[5mC]*d[5mC]*dT*kT*kG*kG; antisense) [Compound 716362],YAP1 (% UTC),[11],94 % UTC
1075281 (antisense k[5mC]*kA*kG*d[5mC]*dA*dA*dA*dA*dG*dT*dA*d[5mC]*d[5mC]*kA*kT*kG) [compound 1075281],YAP1 (% UTC),[4],36 % UTC
1074643 (antisense kT*kT*kG*dA*dA*dG*dG*dG*d[5mC]*d[5mC]*dA*dA*dA*kA*kT*kA) [compound 1074643],YAP1 (% UTC),[3],68 % UTC
1074354 (antisense kG*kG*kA*d[5mC]*dA*d[5mC]*dT*dG*dT*dA*dG*d[5mC]*dT*kG*k[5mC]*kT) [compound 1074354],YAP1 (% UTC),"Table 32, Yap1 mRNA, percent of untreated control, 3-10-3 cEt gapmers targeting SEQ ID NO.: 1, and 2",24 % UTC
1074820 (kA*kA*kG*dT*dG*dT*dT*dA*dA*dG*d[5mC]*dA*d[5mC]*kT*kG*kA; antisense) [Compound 1074820],YAP1 (% UTC),[7],85 % UTC
716527 (antisense kA*kG*kT*dA*d[5mC]*dA*dG*dA*dG*dG*dG*d[5mC]*dA*kT*k[5mC]*kG) [Compound 716527],YAP1 (% UTC),[11],64 % UTC
1076199 (kT*kA*kT*d[5mC]*dA*dA*dA*dA*dG*dT*d[5mC]*d[5mC]*dA*kT*k[5mC]*k[5mC]; antisense) [Compound 1076199],YAP1 (% UTC),[6],37 % UTC
1074443 (kT*k[5mC]*kA*dG*dA*d[5mC]*d[5mC]*dA*dG*dT*dA*dA*dA*kT*k[5mC]*kA; antisense) [Compound 1074443],YAP1 (% UTC),[5],7 % UTC
716575 (kA*kA*kA*dG*dA*dA*d[5mC]*dT*dT*dA*dG*dT*dT*k[5mC]*k[5mC]*k[5mC]; antisense) [Compound 716575],YAP1 (% UTC),[11],84 % UTC
1074921 (antisense k[5mC]*kA*k[5mC]*dT*d[5mC]*dA*dA*dG*dT*dT*dA*d[5mC]*dA*kT*k[5mC]*k[5mC]) [Compound 1074921],YAP1 (% UTC),[9],65 % UTC
716478 (kT*kA*kT*dT*dT*dT*dA*dA*dT*d[5mC]*dT*dA*dG*kT*k[5mC]*kG; antisense) [Compound 716478],YAP1 (% UTC),[10],46 % UTC
716494 (kA*kA*kG*dG*dG*d[5mC]*dT*dT*dA*dT*dT*d[5mC]*dT*kA*kG*kA; antisense) [Compound 716494],YAP1 (% UTC),[11],112 % UTC
716429 (kT*kG*kG*d[5mC]*dA*dT*d[5mC]*d[5mC]*dA*dT*d[5mC]*dA*dT*k[5mC]*k[5mC]*kA; antisense) [Compound 716429],YAP1 (% UTC),[2],28 % UTC
1076209 (k[5mC]*kA*kT*dT*dA*dG*d[5mC]*dA*d[5mC]*dA*d[5mC]*d[5mC]*dT*kT*kT*kT; antisense) [compound 1076209],YAP1 (% UTC),[4],12 % UTC
1075219 (k[5mC]*k[5mC]*kT*dT*dA*dA*d[5mC]*dA*d[5mC]*dT*dG*dG*dT*kA*kA*kG; antisense) [compound 1075219],YAP1 (% UTC),[3],117 % UTC
